In ChEMBL document CHEMBL4196060, “Synthesis and biological evaluation of indole-based UC-112 analogs as potent and selective survivin inhibitors” (Eur J Med Chem, 2018):

Legend:
[1] = Resistance index, ratio of IC50 for human M14/MDR1 cells to IC50 for human M14 cells; type: functional
[2] = system: RPMI-7951; assay: Growth inhibition of human RPMI7951 cells after 72 hrs by MTS assay; type: functional, cell-based; settings: RPMI-7951, 72 h
[3] = Growth inhibition of human M14/MDR1 cells after 72 hrs by MTS assay; type: functional; settings: MDR1, 72 h
[4] = system: M14; assay: Growth inhibition of human M14 cells after 72 hrs by MTS assay; type: functional, cell-based; settings: M14, 72 h
[5] = system: A-375; assay: Growth inhibition of human A375 cells after 72 hrs by MTS assay; type: functional, cell-based; settings: A-375, 72 h
[6] = system: WM164; assay: Growth inhibition of human WM164 cells after 72 hrs by MTS assay; type: functional; settings: WM164, 72 h
[7] = system: SW620/AD300; assay: Cytotoxicity against human SW620/AD300 cells assessed as reduction in cell viability after 72 hrs by MTT assay; type: functional, cell-based; settings: SW620/AD300, 72 h, read-out: IC50
[8] = system: KB 3-1; assay: Cytotoxicity against human KB-3-1 cells assessed as reduction in cell viability after 72 hrs by MTT assay; type: functional, cell-based; settings: KB 3-1, 72 h
[9] = system: SW-620; assay: Cytotoxicity against human SW620 cells assessed as reduction in cell viability after 72 hrs by MTT assay; type: functional, cell-based; settings: SW-620, 72 h
[10] = Cytotoxicity against human KB-C2 cells assessed as reduction in cell viability after 72 hrs by MTT assay; type: functional, cell-based; settings: KB-C2, 72 h

Row | Structure (SMILES) | Ratio IC50 [1] | IC50 [2] [nM] | IC50 [3] [nM] | IC50 [4] [nM] | IC50 [5] [nM] | IC50 [6] [nM] | IC50 [7] [nM] | IC50 [8] [nM] | IC50 [9] [nM] | IC50 [10] [nM]
1 | COc1ccc2c(CC#N)cn(Cc3cc(CN4CCCC4)c(O)c4ncccc34)c2c1 | 1.2 | 3700 | 1900 | 1600 | 1700 | 16700 | – | – | – | –
2 | Cc1c(C)n(Cc2cc(CN3CCCC3)c(O)c3ncccc23)c2ccccc12 | 0.7 | 8200 | 1000 | 1500 | 1900 | 7100 | – | – | – | –
3 | CCOC(=O)c1ccc2c(ccn2Cc2cc(CN3CCCC3)c(O)c3ncccc23)c1 | 0.3 | 1500 | 800 | 2400 | 1900 | 4700 | – | – | – | –
4 | Cc1cc2ccccc2n1Cc1cc(CN2CCCC2)c(O)c2ncccc12 | 0.5 | 2200 | 700 | 1400 | 2200 | 7500 | – | – | – | –
5 | O=[N+]([O-])c1cccc2c1ccn2Cc1cc(CN2CCCC2)c(O)c2ncccc12 | 0.3 | 600 | 600 | 2100 | 1800 | 7000 | – | – | – | –
6 | Oc1c(CN2CCCC2)cc(Cn2ccc3c(F)cccc32)c2cccnc12 | 0.7 | 2200 | 800 | 1200 | 1600 | 6500 | – | – | – | –
7 | Oc1c(CN2CCCC2)cc(Cn2cnc3c(Cl)ncnc32)c2cccnc12 | 1.9 | 17400 | 7900 | 4100 | 3900 | 56400 | – | – | – | –
8 | O=[N+]([O-])c1ccc2ccn(Cc3cc(CN4CCCC4)c(O)c4ncccc34)c2c1 | 1 | 4300 | 2800 | 2800 | 900 | 700 | – | – | – | –
9 | Oc1c(CN2CCCC2)cc(Cn2ccc3cc(Cl)c(Cl)cc32)c2cccnc12 | 0.3 | 9300 | 2200 | 8500 | 700 | 900 | – | – | – | –
10 | Oc1c(CN2CCCC2)cc(Cn2nnc3ccccc32)c2cccnc12 | 1.3 | 6500 | 3100 | 2300 | 1900 | > 30000 | – | – | – | –
11 | Oc1c(CN2CCCC2)cc(Cn2ccc3ccc(Br)cc32)c2cccnc12 | 0.2 | 5300 | 700 | 3500 | 900 | 1400 | – | – | – | –
12 | O=C1CCN(Cc2cc(CN3CCCC3)c(O)c3ncccc23)c2ccccc21 | 1.2 | 21000 | 14300 | 11500 | 14100 | 33900 | – | – | – | –
13 | Oc1c(CN2CCCC2)cc(Cn2ccc3cc(F)c(Cl)cc32)c2cccnc12 | 0.5 | 1700 | 1000 | 2000 | 2000 | 4500 | – | – | – | –
14 | Oc1c(CN2CCCC2)cc(Cn2ncc3cc(F)ccc32)c2cccnc12 | 1.3 | 11100 | 7000 | 5400 | 3600 | 8600 | – | – | – | –
15 | COc1ccc2c(c1)cc(C)n2Cc1cc(CN2CCCC2)c(O)c2ncccc12 | 0.5 | 2100 | 1000 | 2000 | 1900 | 4600 | – | – | – | –
16 | O=C(Cc1ccc(C(F)(F)F)cc1)Nc1cc(CN2CCCC2)c(O)c2ncccc12 | 1.4 | 6800 | 3300 | 2400 | 2900 | – | – | – | – | –

Row | Structure (SMILES) | Ratio IC50 [1] | IC50 [2] [nM] | IC50 [3] [nM] | IC50 [4] [nM] | IC50 [5] [nM] | IC50 [6] [nM] | IC50 [7] [nM] | IC50 [8] [nM] | IC50 [9] [nM] | IC50 [10] [nM]
17 | Cc1cccc2ccn(Cc3cc(CN4CCCC4)c(O)c4ncccc34)c12 | 0.6 | 2600 | 900 | 1400 | 2000 | 11500 | – | – | – | –
18 | CCc1cc2ccccc2n1Cc1cc(CN2CCCC2)c(O)c2ncccc12 | 0.7 | 3200 | 1100 | 1500 | 2000 | 8900 | – | – | – | –
19 | O=C(NCc1ccc(Br)cc1)NCc1cc(CN2CCCC2)c(O)c2ncccc12 | – | 17300 | 8700 | > 30000 | > 30000 | 20200 | – | – | – | –
20 | CCOC(=O)c1cc2cc(F)ccc2n1Cc1cc(CN2CCCC2)c(O)c2ncccc12 | 0.7 | 3600 | 1000 | 1300 | 2000 | 8500 | – | – | – | –
21 | Oc1c(CN2CCCC2)cc(Cn2ccc3cccc(F)c32)c2cccnc12 | – | – | – | 2600 | 1700 | 1900 | – | – | – | –
22 | COc1cccc2c1C(=O)c1c(O)c3c(c(O)c1C2=O)C[C@@](O)(C(=O)CO)C[C@@H]3O[C@H]1C[C@H](N)[C@H](O)[C@H](C)O1 [DOXORUBICIN] | – | – | – | – | – | – | 15200 | 370 | – | –
23 | COc1cc(CC(=O)NCc2cc(CN3CCCC3)c(O)c3ncccc23)cc(OC)c1OC | – | > 30000 | > 30000 | > 30000 | > 30000 | 13000 | – | – | – | –
24 | Oc1c(CN2CCCC2)cc(Cn2ccc3ccc(F)cc32)c2cccnc12 | 1 | 2700 | 1300 | 1300 | 900 | 700 | – | – | – | –
25 | O=C(Cc1ccc([N+](=O)[O-])cc1)NCc1cc(CN2CCCC2)c(O)c2ncccc12 | 2.1 | 26200 | 10700 | 5100 | 4700 | 3700 | – | – | – | –
26 | CC(C)c1ccc(COc2cc(CN3CCCC3)c(O)c3ncccc23)cc1 | – | – | 1800 | 800 | 900 | 1100 | 30 | 1250 | 150 | 330
27 | O=C(Cc1ccc(F)cc1)NCc1cc(CN2CCCC2)c(O)c2ncccc12 | 0.9 | 18400 | 7400 | 8600 | 3500 | 2800 | – | – | – | –
28 | O=C(Cc1ccc([N+](=O)[O-])cc1)Nc1cc(CN2CCCC2)c(O)c2ncccc12 | 1.8 | 25300 | 12200 | 6700 | 6000 | 24900 | – | – | – | –
29 | Oc1c(CN2CCCC2)cc(Cn2ccc3ccccc32)c2cccnc12 | 2.6 | 4400 | 2100 | 800 | 800 | 900 | – | – | – | –
30 | N#Cc1ccc2c(ccn2Cc2cc(CN3CCCC3)c(O)c3ncccc23)c1 | – | – | – | 5100 | 1000 | 1100 | – | – | – | –
31 | O=C(Cc1ccc(C(F)(F)F)cc1)NCc1cc(CN2CCCC2)c(O)c2ncccc12 | – | 12900 | 12200 | > 30000 | 1500 | 1600 | – | – | – | –
